According to publication PMC9822066 (Molecules, 2022):
Where a name gives a salt, the structure may show the parent alone. Read-outs that look alike come from different tables or passages of the source.

Tests used:
[1] = PAMPA, triplicate
[2] = target: BuChE from equine serum (eqBuChE) (Equus caballus, UniProt P81908); assay: biochemical; format: biochemical; conditions: for IC50: mean ± SEM, triplicate independent experiments
[3] = target: T1, electric eel AChE (eeAChE) (Electrophorus electricus, UniProt O42275); assay: biochemical; conditions: for IC50: triplicate independent experiments
T1 construct: purchased Sigma–Aldrich (Steinheim, Germany)
T1 sequence (O42275 24-633): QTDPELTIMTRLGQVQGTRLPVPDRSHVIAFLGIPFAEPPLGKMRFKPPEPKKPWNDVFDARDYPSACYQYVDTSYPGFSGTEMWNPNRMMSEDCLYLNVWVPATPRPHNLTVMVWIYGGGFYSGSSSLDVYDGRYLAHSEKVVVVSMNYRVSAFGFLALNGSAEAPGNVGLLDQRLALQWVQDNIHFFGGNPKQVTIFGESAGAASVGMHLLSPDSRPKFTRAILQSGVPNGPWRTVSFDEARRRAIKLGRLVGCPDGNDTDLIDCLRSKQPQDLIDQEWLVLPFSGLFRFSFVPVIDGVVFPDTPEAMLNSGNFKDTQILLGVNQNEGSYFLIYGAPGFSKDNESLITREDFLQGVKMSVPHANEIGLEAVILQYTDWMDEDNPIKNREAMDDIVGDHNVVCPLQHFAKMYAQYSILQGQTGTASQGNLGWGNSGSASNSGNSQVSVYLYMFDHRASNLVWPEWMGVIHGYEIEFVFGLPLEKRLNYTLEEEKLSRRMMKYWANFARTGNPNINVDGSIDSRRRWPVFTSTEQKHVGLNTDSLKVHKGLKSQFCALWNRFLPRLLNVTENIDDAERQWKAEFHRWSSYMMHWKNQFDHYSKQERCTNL

[4] = target: T2, hMAO B (Homo sapiens, UniProt P27338); assay: Fluorometric MAO assay, hMAO B inhibition; format: biochemical; conditions: mean ± SEM of two independent experiments, read-out: hMAO B %Inh. at 1 µM
T2 sequence (P27338 1-520): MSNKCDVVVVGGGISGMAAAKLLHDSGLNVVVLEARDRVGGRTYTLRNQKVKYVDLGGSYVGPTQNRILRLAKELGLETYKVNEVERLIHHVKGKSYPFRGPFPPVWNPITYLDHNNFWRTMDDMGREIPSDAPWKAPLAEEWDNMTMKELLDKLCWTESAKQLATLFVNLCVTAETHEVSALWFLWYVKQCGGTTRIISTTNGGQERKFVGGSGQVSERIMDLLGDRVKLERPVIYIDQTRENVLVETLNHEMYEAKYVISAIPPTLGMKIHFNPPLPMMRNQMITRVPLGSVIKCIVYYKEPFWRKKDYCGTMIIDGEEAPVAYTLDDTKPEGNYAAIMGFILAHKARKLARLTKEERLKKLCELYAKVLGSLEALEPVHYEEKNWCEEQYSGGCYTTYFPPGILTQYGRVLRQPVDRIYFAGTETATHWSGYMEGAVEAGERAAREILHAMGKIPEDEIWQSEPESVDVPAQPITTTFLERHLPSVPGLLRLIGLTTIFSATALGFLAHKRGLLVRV

[5] = target: T3, human H3R (Homo sapiens, UniProt Q9Y5N1)
T3 construct: expressed in transfected cells; host or cells: HEK293
T3 sequence (Q9Y5N1 whole entry): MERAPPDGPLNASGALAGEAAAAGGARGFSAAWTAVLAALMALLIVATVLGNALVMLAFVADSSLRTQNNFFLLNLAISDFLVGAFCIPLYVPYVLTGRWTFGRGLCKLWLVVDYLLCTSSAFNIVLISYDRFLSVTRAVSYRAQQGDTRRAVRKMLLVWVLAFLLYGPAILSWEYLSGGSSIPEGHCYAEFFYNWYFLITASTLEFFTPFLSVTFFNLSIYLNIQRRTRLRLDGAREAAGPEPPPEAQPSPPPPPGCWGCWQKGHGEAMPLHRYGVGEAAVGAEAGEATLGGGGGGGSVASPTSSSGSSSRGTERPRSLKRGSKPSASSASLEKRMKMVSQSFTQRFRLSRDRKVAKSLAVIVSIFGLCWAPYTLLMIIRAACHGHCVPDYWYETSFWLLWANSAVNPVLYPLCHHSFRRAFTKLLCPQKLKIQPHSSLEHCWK

[6] = test system: human BuChE; conditions: cited from earlier work
[7] = test system: human AChE; conditions: cited from earlier work
[8] = test system: equine BuChE; set-up: method as in PMID 33991182, PMID 32882609, PMID 28832188, PMID 19222043, PMID 18396354; conditions: Figure 2; read-out: equineBuChE IC50; cited from earlier work
[9] = test system: electric eel AChE; set-up: method as in PMID 33991182, PMID 32882609, PMID 28832188, PMID 19222043, PMID 18396354; conditions: Figure 2; read-out: electric eelAChE IC50; cited from earlier work
[10] = target: hH3R; conditions: cited from earlier work
[11] = set-up: method as in PMID 32882609; conditions: Figure 1; cited from earlier work
[12] = test system: human MAO B; conditions: cited from earlier work
[13] = test system: hepatoma HepG2 cells; assay: Hepatotoxicity, MTS viability of HepG2 cells; conditions: 72 h incubation, MTS
Procedure: Doxorubicin (DX) at the concentration of 1 μM was used as the reference cytostatic drug.
A multifunctional reader EnSpire (PerkinElmer, Waltham, MA, USA) was used to measure the absorbance.

[14] = target: T3, human H3R; assay: [3H]Nα-methylhistamine radioligand binding assay in HEK293 cells stably expressing hH3R
Procedure: Final compounds were tested for their H3R affinity in a radioligand binding assay using [^3H]N^α-methylhistamine as radioligand in HEK293 cells stably expressing hH3R [25]. […] Affinity to hH3R stably expressed in HEK293 cells was evaluated in a radioligand binding assay as described previously. […] The radioactivity was counted in a MicroBeta Trilux counter (PerkinElmer). Data were fitted to a one-site curve-fitting equation with Prism 6 (GraphPad Software, San Diego, CA, USA) and Ki values were calculated from IC50 values (from at least three experiments performed in duplicates) according to the Cheng−Prusoff equation [52].

[15] = test system: SH-SY5Y neuroblastoma cells; assay: Neuroprotection against H2O2, LDH necrosis assay; format: cell-based; conditions: 50 µM, 300 µM H2O2, 24 h
[16] = test system: SH-SY5Y neuroblastoma cells; assay: Neuroprotection against H2O2, MTS viability assay; format: cell-based; conditions: 50 µM, 300 µM H2O2, 24 h
[17] = mean ± SEM, read-out: eeAChE IC50
[18] = read-out: hH3R Ki; values marked *; mean [95% CI]; cited from earlier work
[19] = Figure 2, read-out: humanBuChE IC50
[20] = Figure 2, read-out: humanAChE IC50
[21] = values marked *; mean [95% CI]; read-out: hH3R Ki; cited from earlier work
[22] = Figure 2, read-out: humanH3R Ki

BuChE from equine serum (eqBuChE), sequence (P81908 whole entry): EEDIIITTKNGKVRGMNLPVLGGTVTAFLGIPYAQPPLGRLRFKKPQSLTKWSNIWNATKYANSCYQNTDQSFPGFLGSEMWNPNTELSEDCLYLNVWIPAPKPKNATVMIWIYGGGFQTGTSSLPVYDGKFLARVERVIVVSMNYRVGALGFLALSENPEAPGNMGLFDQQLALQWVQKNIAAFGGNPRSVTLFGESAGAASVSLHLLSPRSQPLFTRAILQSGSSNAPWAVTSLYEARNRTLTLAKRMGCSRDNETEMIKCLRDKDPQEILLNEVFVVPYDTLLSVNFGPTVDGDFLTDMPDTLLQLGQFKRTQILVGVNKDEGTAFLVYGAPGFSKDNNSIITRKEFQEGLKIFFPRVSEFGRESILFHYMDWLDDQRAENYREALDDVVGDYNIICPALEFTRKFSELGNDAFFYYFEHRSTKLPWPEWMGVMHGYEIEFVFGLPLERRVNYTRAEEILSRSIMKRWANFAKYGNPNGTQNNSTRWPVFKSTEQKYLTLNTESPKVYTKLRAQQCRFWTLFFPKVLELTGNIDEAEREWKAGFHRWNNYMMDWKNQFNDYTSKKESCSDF

Compound	IC50 [2] [nM]	IC50 [3, 17] [nM]	inhibition at 1 µM [4] [%]	Ki [5, 21] [nM]	other results
Cn1c(=O)c2c(ncn2C)n(C)c1=O [Caffeine, reference compound]	–	–	–	–	Pe ± SD [1]: 15.1 ± 0.4 10^−6 cm/s
O=C(c1ccccc1)c1ccc(OCCCCCCN2CCCCCC2)cc1 [Compound 33, (4-((6-(Azepan-1-yl)hexyl)oxy)phenyl)(phenyl)methanone hydrogen oxalate]	1280 ± 38	1810 ± 38	23	–	Ki [5, 18]: 41 nM
COc1ccc(C(=O)c2cccc(CN(C)Cc3ccccc3)c2)cc1OC [compound V]	–	–	–	–	IC50 [6, 19]: 60700 nM; IC50 [7, 20]: 460 nM
O=C(c1ccccc1)c1ccc(OCCCCCN2CCCCCC2)cc1 [Compound 28, (4-((5-(Azepan-1-yl)pentyl)oxy)phenyl)(phenyl)methanone hydrogen oxalate]	678 ± 7	–	29	–	IC50 ([3]; eeAChE IC50, mean ± SEM): 4630 ± 100 nM; Ki [5, 18]: 39 nM
CCN(CC)Cc1cc2c(=O)c3c(O)cccc3oc2cc1OCC=C(C)C [compound III]	–	–	–	–	IC50 [8]: 510 nM; IC50 [9]: 2600 nM
O=C(c1ccccc1)c1ccc(OCCCCCCN2CCCCC2)cc1 [Compound 9, Phenyl (4-((6-(piperidin-1-yl)hexyl)oxy)phenyl)methanone hydrogen oxalate]	1780 ± 34	3730 ± 85	9	41	–
O=c1c2ccccc2oc2ccc(OCCCCCN3CCCCCC3)cc12 [Compound I]	–	–	–	–	IC50 ([6]; Figure 1, read-out: hBuChE IC50): 1280 nM; IC50 ([7]; Figure 1, read-out: hAChEI IC50): 390 nM; Ki ([10]; Figure 1, read-out: hH3R Ki): 170 nM; in vivo activity [11]: significant memory-enhancing effect; IC50 ([12]; Figure 1, read-out: hMAO B IC50): 780 nM
O=C(c1ccccc1)c1cccc(OCCCCCCN2CCCCCC2)c1 [Compound 32, (3-((6-(Azepan-1-yl)hexyl)oxy)phenyl)(phenyl)methanone hydrogen oxalate]	616 ± 2	1550 ± 34	17	70	–
COc1cccc2c1C(=O)c1c(O)c3c(c(O)c1C2=O)C[C@@](O)(C(=O)CO)C[C@@H]3O[C@H]1C[C@H](N)[C@H](O)[C@H](C)O1 [Doxorubicin, reference compound]	–	–	–	–	concentration decreasing HepG2 cell viability [13]: ≤ 1000 nM
xanthostigmine	–	–	–	–	IC50 [6, 19]: 48 nM; IC50 [7, 20]: 0.3 nM
CC1CCCN(CCCCCOc2ccc(C(=O)c3ccccc3)cc2)C1 (stereo not shown) [Compound 14, (4-((5-(3-Methylpiperidin-1-yl)pentyl)oxy)phenyl)(phenyl)methanone hydrogen oxalate]	3780 ± 61	3180 ± 83	9	40	–
O=c1c2ccccc2oc2ccc(OCCCCCCN3CCCCCC3)cc12 [compound II]	–	–	–	–	IC50 [8]: 610 nM; IC50 [9]: 310 nM; Ki [10, 22]: 500 nM; IC50 ([12]; Figure 2, read-out: humanMAOB IC50): 390 nM
c1cc2c(cc1OCCCCCCN1CCCCC1)CN1CCCC1=N2 [compound IV]	–	–	–	–	IC50 [8]: 1300 nM; IC50 [7, 20]: 39.1 nM; Ki [10, 22]: 110 nM
CC1CCCN(CCCCCCOc2ccc(C(=O)c3ccccc3)cc2)C1 (stereo not shown) [Compound 19, (4-((6-(3-Methylpiperidin-1-yl)hexyl)oxy)phenyl)(phenyl)methanone hydrogen oxalate]	1980 ± 34	2110 ± 50	7	53	–
O=C(c1ccccc1)c1cccc(OCCCCCCN2CCCCC2)c1 [Compound 8, Phenyl (3-((6-(piperidin-1-yl)hexyl)oxy)phenyl)methanone hydrogen oxalate]	2100 ± 60	3630 ± 111	15	76	–
CC1CCCN(CCCCCCOc2cccc(C(=O)c3ccccc3)c2)C1 (stereo not shown) [Compound 18, (3-((6-(3-Methylpiperidin-1-yl)hexyl)oxy)phenyl)(phenyl)methanone hydrogen oxalate]	2900 ± 77	2000 ± 30	27	110	–
CC1CCCN(CCCCCOc2cccc(C(=O)c3ccccc3)c2)C1 (stereo not shown) [Compound 13, (3-((5-(3-Methylpiperidin-1-yl)pentyl)oxy)phenyl)(phenyl)methanone hydrogen oxalate]	3420 ± 78	3790 ± 104	8	–	Ki [14]: 78 nM
O=C(c1ccccc1)c1cccc(OCCCCCN2CCCCC2)c1 [Compound 3, Phenyl (3-((5-(piperidin-1-yl)pentyl)oxy)phenyl)methanone hydrogen oxalate]	4010 ± 67	7750 ± 329	15	–	Ki [14]: 210 nM
C[C@@H]1NCCc2cc(O)c(O)cc21 [salsolinol, reference compound]	–	–	–	–	effect on necrosis (LDH test) [15]: lowered the number of necrotic cells to the control level; effect on viability (MTS test) [16]: statistically significantly increased the number of living cells
O=C(O)C(=O)O.O=C(c1ccccc1)c1ccccc1OCCCCCN1CCCCCC1 [Compound 26, (2-((5-(Azepan-1-yl)pentyl)oxy)phenyl)(phenyl)methanone hydrogen oxalate]	384 ± 8	–	3	–	Ki [14]: 302 nM; selectivity eqBuChE versus eeAChE [2]: selective eqBuChE inhibitors; inhibition at 10 µM ([3]; read-out: eeAChE % Inh. at 10 µM): 24%
